Experimental data taken from patent US9340577B2, “HLA binding motifs and peptides and their uses” (priority 1992, dated 2016).
Residues, ends and D or L forms follow the SMILES beside them. No end group written: not given here.

Assays:
Test in all cases: biochemical
Type in all cases: binding
HLA-A11 (A*1101) = HLA-A11 (A*1101) (Homo sapiens, UniProt P04439, A114D/D185E/E176A/F33Y/L180Q/S129P/T187R); design: A11: unit not given here
A31 (A*3101) = A31 (A*3101) (Homo sapiens, UniProt P04439, A270S/D185E/E176V/E277Q/F33T/G231S/G80R/H175R/I121M/I218V/I322F/K168Q/L300P/L318F/M331R/P217A/Q94H/R138Q/T323A/T345S/T97I/V358M)
A*3301 = A*3301 (Homo sapiens, UniProt P04439, A270S/D185E/E176V/E277Q/E87N/F33T/G231S/H175R/I121M/I218V/I322F/K168Q/K210R/L300P/L318F/M331R/P217A/Q86R/Q94H/R138Q/T323A/T345S/T97I/V358M/Y195H)
HLA-A3.2 (A*0301) = HLA-A3.2 (A*0301) (Homo sapiens, UniProt P04439); conditions: for A3.2: Table 164, MAGE peptides, binding value to HLA-A3.2, no unit given
HLA-A*0201 (HLA-A2.1) = HLA-A*0201 (HLA-A2.1) (Homo sapiens, UniProt P04439, D140Y/D185E/D98H/E176V/E277Q/G131W/G231S/I119V/I121R/I166T/I218V/L300P/L318F/N151K/N90K/P208A/P217A/Q86G/Q94H/R138H/R169H/T345S)
A*6801 = A*6801 (Homo sapiens, UniProt P04439, A269V/D185E/E176V/E277Q/E87N/F33Y/G231S/I121M/I166T/I218V/L180W/L300P/L318F/N151K/P208A/P217A/Q86R/R169H/T345S)

Compound	IC50 (HLA-A11 (A*1101)) [nM]	IC50 (A31 (A*3101)) [nM]	IC50 (A*3301) [nM]	IC50 (HLA-A3.2 (A*0301)) [nM]	A11 (HLA-A11 (A*1101))	A2.1 (HLA-A*0201 (HLA-A2.1))	A3.2 (HLA-A3.2 (A*0301))	IC50 (A*6801) [nM]
CC[C@H](C)[C@H](NC(=O)[C@H](CS)NC(=O)[C@H](CCCNC(=N)N)NC(=O)[C@@H](NC(=O)[C@@H](N)CC(C)C)[C@@H](C)CC)C(=O)N[C@H](C(=O)N[C@@H](CS)C(=O)N[C@@H](CCC(N)=O)C(=O)N[C@@H](CCCCN)C(=O)O)[C@@H](C)CC [Peptide 88.0298] (H-LIRCIICQK-OH)	252	639	834	445				
AAEGVGAVSR [Peptide 9017.0188]	992	2680	4120	16000				
ALTALITPK [Peptide 9017.0099]	16	439		17				
ALTALITPKK [Peptide 9017.0230]	6.8	7410	> 20000	44				
EVYDGREHSA					0	0	<0.0002	
FAFTDLTIVY [Peptide 78.0103]	> 20000	> 20000	> 20000	> 20000				
FLGALKSFLK [Peptide 88.0148]	120	327		27				
FLIIVLVMIA					0.0030	0.0003	0.0093	
FTDLTIVYR [Peptide 78.0313]	2660	602	585	> 20000				
GLYYIHGNEK [Peptide 1589.40]	18	141	4510	17				
GVSIEWRQR [Peptide 9017.0087]	1220	335	2090	13100				
ISKQPLPQTR [Peptide 9017.0207]	> 20000	83	2580	> 20000				
IVFIEYRKIR [Peptide 9017.0245]	1470	12	312	4370				
KQFLQGVPK [Peptide 88.0390]	17	44	5180	32				
KQMSMSQWIK [Peptide 1587.09]	17	50		49				
KSLFGMSLMK [Peptide 1587.13]	1.5	271	> 20000	4.4				
KVCSGVDYR [Peptide 1589.35]	5170		5780	> 20000				
LALTALITPK [Peptide 9017.0228]	6.6	1730	> 20000	88				
LNKMFCQLAR [Peptide 1556.49]	8880			11100				1800
LQMALETLSK [Peptide 88.0214]	22	10600	> 20000	559				
LQQTSLEMWR [Peptide 88.0228]	445		> 20000	13100				
LVFGIDVKEA					0	0.0002	<0.0002	
NTKATLLYK [Peptide 88.0385]	109	3820	168	396				
QLALEALNK [Peptide 88.0424]	155	> 20000	> 20000	166				

Compound	IC50 (HLA-A11 (A*1101)) [nM]	IC50 (A31 (A*3101)) [nM]	IC50 (A*3301) [nM]	IC50 (HLA-A3.2 (A*0301)) [nM]	A11 (HLA-A11 (A*1101))	A2.1 (HLA-A*0201 (HLA-A2.1))	A3.2 (HLA-A3.2 (A*0301))	IC50 (A*6801) [nM]
QQRSLTEILK [Peptide 9012.0218]	93		> 20000	520				
QTRSLTEILK [Peptide 9012.0217]	96	3170	19800	250				
RIGILRQRR [Peptide 9017.0113]	1140	7.6		277				
RLIDRIRER [Peptide 9017.0123]	137	4.6	937	36				
SLARRHIAR [Peptide 9017.0067]	1100	1.5	30	66				
SQTCALYWFR [Peptide 88.0165]	1830		260	4850				
STAAALYWYK [Peptide 1587.06]	1.6			4.5				5.9
STWHWTSDDK [Peptide 1589.43]	47	5300	> 20000	342				
SVRKLVEDR [Peptide 9017.0105]	1140	15	187	5100				
TVDVYMIMVK [Peptide 9012.0257]	95	> 20000	> 20000	11100				
TVRHKKLMFK [Peptide 1556.79]	188	5100	11800	440				
TVWNPPTTAK [Peptide 1556.03]	26	9190	1580	25				
VFGIDVKEA					0	<0.0002	<0.0002	
VLCGPPNTGK [Peptide 88.0189]	220	370	> 20000	141				
VLYGPANTGK [Peptide 88.0180]	25	1930		9.8				
VSIEWRKRR [Peptide 9017.0090]	77	9.2	58	2650				
VTIKIGGQIK [Peptide 1516.02]	184	19300	> 20000	1110				
VVCTYSPALNK [Peptide 1556.35]	104	5190	> 20000	370				
VVFGILIKRK [Peptide 9012.0246]	13	2600	10100	54				
VVPALSVSK [Peptide 1589.14]	33	> 20000	> 20000	515				
VVYRLVWDK [Peptide 1589.38]	13	989	3780	63				
WFFVETIVEK [Peptide 88.0171]	1480	18300	201	13700				
WTLELLEELK [Peptide 9017.0238]	3840	17200	> 20000	> 20000				
